Laboratory results: US20020037931A1, “Substituted nitrated catechols, their use in the treatment of some central and peripheral nervous system disorders and pharmaceutical compositions containing them” (priority 2000, published 2002)

Columns and labels:
COMT [1] = target: T1, COMT (Homo sapiens, UniProt P21964); test: COMT activity in intact SK-N-SH cell monolayers; type: cell-based; conditions: SK-N-SH cells; test compound 100 nM; means±SEM, n=4-8
T1 construct: COMT activity was evaluated in cell monolayers by the ability to methylate adrenaline; host or cells: SK-N-SH cells
T1 sequence (P21964 1-271): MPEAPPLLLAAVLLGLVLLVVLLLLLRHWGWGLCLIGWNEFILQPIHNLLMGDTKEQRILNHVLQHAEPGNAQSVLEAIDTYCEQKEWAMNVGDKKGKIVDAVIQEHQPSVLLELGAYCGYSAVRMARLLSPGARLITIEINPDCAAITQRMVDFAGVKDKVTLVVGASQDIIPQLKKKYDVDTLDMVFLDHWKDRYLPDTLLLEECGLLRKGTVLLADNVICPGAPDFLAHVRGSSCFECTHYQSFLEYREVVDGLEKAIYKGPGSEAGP

COMT [2] = test: COMT activity (methylation of adrenaline to metanephrine) in rat liver homogenates; type: biochemical; conditions: rat liver homogenate; test compound 3 μM; means±SEM, n=4-8
COMT [3] = test: COMT activity (methylation of adrenaline to metanephrine) in rat brain homogenates; type: biochemical; conditions: rat brain homogenate; test compound 100 nM; means±SEM, n=4-8

Compound | COMT activity, SK-N-SH (% of control) (COMT [1]) | COMT activity, Liver (% of control) (COMT [2]) | COMT activity, Brain (% of control) (COMT [3])
O=C(CCN1CCCCC1)c1ccc(O)c(O)c1[N+](=O)[O-] [Compound 27, 1-(3,4-Dihydroxy-2-nitro-phenyl)-3-piperidin-1-yl-propan-1-one] | 5 ± 1 % of control | 2.4 ± 0.2 % of control | 15 ± 1 % of control
O=C1c2c(cc(O)c(O)c2[N+](=O)[O-])CC1CN1CCOCC1 (stereo not shown) [Compound 29, 5,6-Dihydroxy-2-morpholin-4-ylmethyl-7-nitro-indan-1-one] | 21 ± 1 % of control | 0.6 ± 0.0 % of control | 12 ± 1 % of control
O=C(CCCc1ccccc1)c1ccc(O)c(O)c1[N+](=O)[O-] [Compound 15, 1-(3,4-dihydroxy-2-nitro-phenyl)4-phenyl-butan-1-one] | 13 ± 4 % of control | 0.5 ± 0.0 % of control | 7 ± 2 % of control
CCOC(=O)Oc1ccc(C(=O)CCc2ccccc2)c([N+](=O)[O-])c1OC(=O)OCC [Compound 22, Carbonic acid, 2-ethoxycarbonyloxy-3-nitro-4-(3-phenyl-propionyl)-phenyl ester ethyl ester] | 12 ± 1 % of control | 0.3 ± 0.1 % of control | 9 ± 0 % of control
COc1cc(C=C2Cc3cc(O)c(O)c([N+](=O)[O-])c3C2=O)cc([N+](=O)[O-])c1O [Compound 10, 5,6-Dihydroxy-2-(4-hydroxy-3-methoxy-5-nitro-benzylidene)-7-nitro-indan-1-one] | 24 ± 2 % of control | 0.3 ± 0.1 % of control | 14 ± 1 % of control
O=[N+]([O-])c1c(O)c(O)cc2c1C(=NO)CC2 [Compound 6, 5,6-Dihydroxy-7-nitro-indan-1-one Oxime] | 39 ± 3 % of control | 1.77 ± 0.1 % of control | 33 ± 1 % of control
CC(=O)Oc1cc2c(c([N+](=O)[O-])c1OC(C)=O)C(=O)C(C)(C)CC2 [Compound 25, Acetic Acid, 3-Acetoxy-7,7-dimethyl-1-nitro-8-oxo-5,6,7,8-tetrahydro-naphthalen-2-yl Ester] | 39 ± 1 % of control | 1.7 ± 0.1 % of control | 19 ± 1 % of control
CCCN1CCN(CCC(=O)c2ccc(O)c(O)c2[N+](=O)[O-])CC1 [Compound 39, 1-(3,4-Dihydroxy-2-nitro-phenyl)-3-(4-propyl-piperazin-1-yl)-propan-1-one] | 11 ± 0 % of control | 0.8 ± 0.2 % of control | 8 ± 0 % of control
CC(=O)Oc1ccc(C(=O)CCCc2ccccc2)c([N+](=O)[O-])c1OC(C)=O [Compound 49, Acetic acid, 6-acetoxy-2-nitro-3-(4-phenyl-butyryl)-phenyl ester] | 1 ± 0 % of control | 1.4 ± 0.8 % of control | 0 ± 0 % of control
O=C1c2c(cc(O)c(O)c2[N+](=O)[O-])CC1CN1CCN(c2ccccc2)CC1 (stereo not shown) [Compound 44, 5,6-Dihydroxy-7-nitro-2-(4-phenyl-piperazin-1-ylmethyl)-indan-1-one] | 9 ± 2 % of control | 0.6 ± 0.2 % of control | 10 ± 0 % of control
CN(C)c1ccc(C=C2CCc3cc(O)c(O)c([N+](=O)[O-])c3C2=O)cc1 [Compound 9, 2-(4-Dimethylamino-benzylidene)-6,7-dihydroxy-8-nitro-3,4-dihydro-2H-naphthalen-1-one] | 8 ± 1 % of control | 9.0 ± 1.6 % of control | 47 ± 5 % of control
O=C(CCN1CCCC1)c1ccc(O)c(O)c1[N+](=O)[O-] [Compound 28, 1-(3,4-Dihydroxy-2-nitro-phenyl)-3-pyrrolidin-1-yl-propan-1-one] | 7 ± 0 % of control | 2.2 ± 0.2 % of control | 14 ± 1 % of control
CCN(CC)C(=O)C1CCCN(CCC(=O)c2ccc(O)c(O)c2[N+](=O)[O-])C1 (stereo not shown) [Compound 31, 1-[3-(3,4-Dihydroxy-2-nitro-phenyl)-3-oxo-propyl]-piperidine-3-carboxylic acid diethylamide] | 13 ± 2 % of control | 1.7 ± 0.6 % of control | 8 ± 0 % of control
O=C(C=Cc1ccccc1)c1ccc(O)c(O)c1[N+](=O)[O-] [Compound 41, 1-(3,4-dihydroxy-2-nitro-phenyl)-3-phenyl-propenone] | 5 ± 0 % of control | 1.1 ± 0.2 % of control | 9 ± 1 % of control
CCOC(=O)Oc1ccc(C(=O)Cc2ccccc2)c([N+](=O)[O-])c1OC(=O)OCC [Compound 48, Carbonic acid, 2-ethoxycarbonyloxy-3-nitro-4-phenylacetyl-phenyl ester ethyl ester] | 7 ± 3 % of control | 0.5 ± 0.1 % of control | 0 ± 0 % of control
O=C(CCN1CCCC2CCCCC21)c1ccc(O)c(O)c1[N+](=O)[O-] (stereo not shown) [Compound 34, 1-(3,4-Dihydroxy-2-nitro-phenyl)-3-(octahydro-quinolin-1-yl)-propan-1-one] | 11 ± 2 % of control | 1.6 ± 0.2 % of control | 5 ± 0 % of control
CC(=O)Oc1ccc(C(=O)Cc2ccccc2)c([N+](=O)[O-])c1OC(C)=O [Compound 45, Acetic acid, 6-acetoxy-2-nitro-3-phenylacetyl-phenyl ester] | 7 ± 3 % of control | 0.7 ± 0.2 % of control | 0 ± 0 % of control
O=C1CCc2cc(O)c(O)c([N+](=O)[O-])c21 [Compound 2, 5,6-Dihydroxy-7-nitro-indan-1-one] | 24 ± 1 % of control | 1.3 ± 0.7 % of control | 9 ± 1 % of control
O=C1C(=Cc2ccc(O)c(O)c2)CCc2cc(O)c(O)c([N+](=O)[O-])c21 [Compound 13, 2-(3,4-Dihydroxy-benzylidene)-6,7-dihydroxy-8-nitro-3,4-dihydro-2H-naphthalen-1-one] | 46 ± 1 % of control | 2.3 ± 0.1 % of control | 27 ± 1 % of control
CCCCC(=O)c1ccc(O)c(O)c1[N+](=O)[O-] [Compound 17, 1-(3,4-dihydroxy-2-nitro-phenyl)-pentan-1-one] | 24 ± 4 % of control | 0.4 ± 0.0 % of control | 8 ± 1 % of control
COc1ccc(C=C2Cc3cc(O)c(O)c([N+](=O)[O-])c3C2=O)cc1OC [Compound 7, 2-(3,4-Dimethoxy-benzylidene)-5,6-dihydroxy-7-nitro-indan-1-one] | 23 ± 1 % of control | 0.6 ± 0.3 % of control | 14 ± 1 % of control
CC(=O)Oc1ccc(C(=O)C=Cc2ccccc2)c([N+](=O)[O-])c1OC(C)=O [Compound 40, Acetic acid, 6-acetoxy-2-nitro-3-(3-phenyl-acryloyl)-phenyl ester] | 8 ± 1 % of control | 1.6 ± 0.4 % of control | 10 ± 0 % of control
O=C1CCCc2cc(O)c(O)c([N+](=O)[O-])c21 [Compound 1, 6,7-Dihydroxy-8-nitro-3,4-dihydro-2H-naphthalen-1-one] | 46 ± 1 % of control | 1.2 ± 0.2 % of control | 15 ± 4 % of control
CC1CCCN(CCC(=O)c2ccc(O)c(O)c2[N+](=O)[O-])C1 (stereo not shown) [Compound 32, 1-(3,4-Dihydroxy-2-nitro-phenyl)-3-(3-methyl-piperidin-1-yl)-propan-1-one] | 11 ± 2 % of control | 2.3 ± 0.2 % of control | 10 ± 0 % of control
O=C1c2ccccc2C(=O)c2c1cc(O)c(O)c2[N+](=O)[O-] [Compound 18, 2,3-Dihydroxy-1-nitro-anthraquinone] | 70 ± 5 % of control | 2.0 ± 0.0 % of control | 17 ± 1 % of control
CC(=O)OC(=Cc1ccccc1)c1ccc(OC(C)=O)c(OC(C)=O)c1[N+](=O)[O-] [Compound 46, Acetic Acid, 2-Acetoxy4-(I-acetoxy-2-phenyl-vinyl)-3-nitro-phenyl Ester] | 1 ± 1 % of control | – | –
